From patent US9718821B2, “Pyridopyrimidinone inhibitors of kinases” (AbbVie Inc., priority 2012, dated 2017) come the findings set out here.

For the test, the target named is T1, GST-tagged-Wee1 kinase (Homo sapiens, UniProt P30291).
T1 construct: purchased Carnabio 05-177
T1 sequence (P30291 whole entry): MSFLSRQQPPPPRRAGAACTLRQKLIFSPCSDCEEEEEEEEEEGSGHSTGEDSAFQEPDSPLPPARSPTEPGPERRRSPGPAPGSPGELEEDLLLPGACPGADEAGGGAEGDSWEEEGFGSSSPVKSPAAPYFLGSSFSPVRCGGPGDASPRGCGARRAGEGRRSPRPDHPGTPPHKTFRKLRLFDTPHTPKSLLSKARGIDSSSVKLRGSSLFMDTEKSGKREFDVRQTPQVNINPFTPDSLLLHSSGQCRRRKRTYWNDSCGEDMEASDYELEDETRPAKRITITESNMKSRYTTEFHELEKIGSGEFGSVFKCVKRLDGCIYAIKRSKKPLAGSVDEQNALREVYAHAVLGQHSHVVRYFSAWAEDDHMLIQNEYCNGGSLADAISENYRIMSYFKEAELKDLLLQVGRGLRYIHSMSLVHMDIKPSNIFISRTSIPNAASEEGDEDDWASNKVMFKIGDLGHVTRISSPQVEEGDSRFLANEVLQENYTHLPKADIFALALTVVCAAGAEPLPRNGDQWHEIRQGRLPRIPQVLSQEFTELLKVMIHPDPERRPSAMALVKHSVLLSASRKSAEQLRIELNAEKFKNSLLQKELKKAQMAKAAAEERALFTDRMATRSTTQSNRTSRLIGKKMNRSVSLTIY
Kind of test: Wee1 time-resolved fluorescence equilibrium binding assay (displacement of Oregon Green-labeled ATP-competitive kinase probe). Particulars: enzyme binding data; GST-tagged-Wee1 kinase 2 nM, fluorescent probe 300 nM, inhibitor 0.003 to 10 micromolar, 1 hour incubation; read-out: Wee-1 binding (Ki nM). How it is done: Wee1 kinase was assayed using a time-resolved fluorescence equilibrium binding assay monitoring displacement of a rapidly reversible Oregon Green-labeled ATP-competitive kinase probe (N-(2-(2-(2-(4-(4-(5-chloro-4-(2-(1-hydroxycyclobutyl)thiazol-5-yl)-1H-pyrrolo[2,3-b]pyridin-2-yl)phenyl)piperazin-1-yl)ethoxy)ethoxy)ethyl)-2′,7′-difluoro-3′,6′-dihydroxy-3-oxo-3H-spiro[isobenzofuran-1,9′-xanthene]-5-carboxamide) by competitive Wee1 inhibitors.
Table 1 depicts enzyme binding data (Ki)for exemplary compounds.
On to `Cc1cn(-c2c(Cl)cccc2Cl)c(=O)c2cnc(Nc3ccc4c(c3)CN(C)CC4(C)C)nc12` [Example 79, 6-(2,6-dichlorophenyl)-8-methyl-2-[(2,4,4-trimethyl-1,2,3,4-tetrahydroisoquinolin-7-yl)amino]pyrido[4,3-d]pyrimidin-5(6H)-one], for which the Ki – broadly, the equilibrium dissociation constant of an inhibitor or competing ligand from its target – came to 0.4 nM.

With `Cc1cn(-c2c(Cl)cccc2Cl)c(=O)c2cnc(Nc3ccc4c(c3)CN(CCN(C)C)C4)nc12` [Example 141, 6-(2,6-dichlorophenyl)-2-({2-[2-(dimethylamino)ethyl]-2,3-dihydro-1H-isoindol-5-yl}amino)-8-methylpyrido[4,3-d]pyrimidin-5(6H)-one], the Ki was 1 nM.

Take `Cc1cccc(C)c1-n1cc(C)c2nc(Nc3ccc4c(c3)CN(C)CC43CC3)ncc2c1=O` [Example 88, 6-(2,6-dimethylphenyl)-8-methyl-2-[(2′-methyl-2′,3′-dihydro-1′H-spiro[cyclopropane-1,4′-isoquinolin]-7′-yl)amino]pyrido[4,3-d]pyrimidin-5(6H)-one]: the Ki amounted to 0.544 nM.

Take `Cc1cn(-c2c(Cl)cccc2Cl)c(=O)c2cnc(Nc3ccc4c(c3)CN(C)C4(C)C)nc12` [Example 115, 6-(2,6-dichlorophenyl)-8-methyl-2-[(1,1,2-trimethyl-2,3-dihydro-1H-isoindol-5-yl)amino]pyrido[4,3-d]pyrimidin-5(6H)-one]: the Ki amounted to 0.2 nM.

For the molecule `CN(C)CCCN1CCN(c2ccc(Nc3ncc4c(=O)n(-c5c(Cl)cccc5Cl)cc(CF)c4n3)cc2)CC1` [Example 140, 6-(2,6-dichlorophenyl)-2-[(4-{4-[3-(dimethylamino)propyl]piperazin-1-yl}phenyl)amino]-8-(fluoromethyl)pyrido[4,3-d]pyrimidin-5(6H)-one], the Ki worked out at 0.2 nM.

`Cc1cccc(C)c1-n1cc(C)c2nc(Nc3ccc(N4CCC(N(C)C)CC4)cc3)ncc2c1=O` [Example 89, 2-({4-[4-(dimethylamino)piperidin-1-yl]phenyl}amino)-6-(2,6-dimethylphenyl)-8-methylpyrido[4,3-d]pyrimidin-5(6H)-one]: the Ki came to 0.897 nM.

Consider `O=c1c2cnc(Nc3ccc4c(c3)CCNC4)nc2c(-c2ncc[nH]2)cn1-c1c(Cl)cccc1Cl` [Example 81, 6-(2,6-dichlorophenyl)-8-(1H-imidazol-2-yl)-2-(1,2,3,4-tetrahydroisoquinolin-6-ylamino)pyrido[4,3-d]pyrimidin-5(6H)-one], for which the Ki amounted to 0.4 nM.

Regarding `Cc1cn(-c2c(F)cccc2Cl)c(=O)c2cnc(Nc3ccc(N4CCN(C)CC4)cc3)nc12` [Example 66, 6-(2-chloro-6-fluorophenyl)-8-methyl-2-{[4-(4-methylpiperazin-1-yl)phenyl]amino}pyrido[4,3-d]pyrimidin-5(6H)-one], the Ki was 0.9 nM.

On to `Cc1cn(-c2c(Cl)cccc2Cl)c(=O)c2nnc(Nc3ccc4c(c3)CNCC4)nc12` [Example 134, 7-(2,6-dichlorophenyl)-5-methyl-3-(1,2,3,4-tetrahydroisoquinolin-7-ylamino)pyrido[4,3-e][1,2,4]triazin-8(7H)-one], for which the inhibition constant Ki was determined as 6.5 nM.

Turning to `CNc1ncc2c(=O)n(-c3c(Cl)cccc3Cl)cc(C)c2n1` [Example 65, 6-(2,6-dichlorophenyl)-8-methyl-2-(methylamino)pyrido[4,3-d]pyrimidin-5(6H)-one], the Ki amounted to 127 nM.

As to `C=Cc1cn(-c2c(F)cccc2Cl)c(=O)c2cnc(Nc3ccc4c(c3)CC(N(C)C)C4)nc12` (centres unmarked) [Example 64, 6-(2-chloro-6-fluorophenyl)-2-{[2-(dimethylamino)-2,3-dihydro-1H-inden-5-yl]amino}-8-ethenylpyrido[4,3-d]pyrimidin-5(6H)-one], the Ki turned out to be 0.5 nM.

With `C=Cc1cn(-c2c(Cl)cccc2Cl)c(=O)c2cnc(Nc3ccc(N4CC5CNCC5C4)cc3)nc12` (centres unmarked) [Example 52, 6-(2,6-dichlorophenyl)-8-ethenyl-2-{[4-(hexahydropyrrolo[3,4-c]pyrrol-2(1H)-yl)phenyl]amino}pyrido[4,3-d]pyrimidin-5(6H)-one], the Ki was 1.8 nM.

Regarding `Cc1cn(-c2c(Cl)cccc2Cl)c(=O)c2cnc(Nc3ccc(OC4CCN(C)CC4)cc3)nc12` [Example 122, 6-(2,6-dichlorophenyl)-8-methyl-2-({4-[(1-methylpiperidin-4-yl)oxy]phenyl}amino)pyrido[4,3-d]pyrimidin-5(6H)-one], the Ki is 0.4 nM.

On to `Cc1noc(C)c1-n1cc(C)c2nc(Nc3ccc4c(c3)CNCC4)ncc2c1=O` [Example 124, 6-(3,5-dimethyl-1,2-oxazol-4-yl)-8-methyl-2-(1,2,3,4-tetrahydroisoquinolin-7-ylamino)pyrido[4,3-d]pyrimidin-5(6H)-one], for which the Ki is 1.6 nM.

Turning to `Cc1cn(-c2cccc3ccccc23)c(=O)c2cnc(Nc3ccc(N4CCC(N(C)C)CC4)cc3)nc12` [Example 101, 2-({4-[4-(dimethylamino)piperidin-1-yl]phenyl}amino)-8-methyl-6-(naphthalen-1-yl)pyrido[4,3-d]pyrimidin-5(6H)-one], the Ki amounted to 2.8 nM.

As to `Cc1cn(-c2cc(Cl)ccc2Cl)c(=O)c2cnc(Nc3ccc4c(c3)CNCC4)nc12` [Example 102, 6-(2,5-dichlorophenyl)-8-methyl-2-(1,2,3,4-tetrahydroisoquinolin-7-ylamino)pyrido[4,3-d]pyrimidin-5(6H)-one], the Ki is 17.8 nM.

Take `Cc1cccc(Cl)c1-n1cc(C)c2nc(Nc3ccc(N4CCC(N(C)C)CC4)cc3)ncc2c1=O` [Example 91, 6-(2-chloro-6-methylphenyl)-2-({4-[4-(dimethylamino)piperidin-1-yl]phenyl}amino)-8-methylpyrido[4,3-d]pyrimidin-5(6H)-one]: the Ki was 0.22 nM.

Regarding `C=Cc1cn(-c2c(Cl)cccc2Cl)c(=O)c2cnc(Nc3ccc4c(c3)CC(N(C)C)C4)nc12` (centres unmarked) [Example 49, 6-(2,6-dichlorophenyl)-2-{[2-(dimethylamino)-2,3-dihydro-1H-inden-5-yl]amino}-8-ethenylpyrido[4,3-d]pyrimidin-5(6H)-one], the Ki was 0.3 nM.

In the case of `Cc1cn(-c2c(Cl)cccc2Cl)c(=O)c2cnc(Nc3ccc(N4CCN(CCN(C)C)CC4)cc3)nc12` [Example 138, 6-(2,6-dichlorophenyl)-2-[(4-{4-[2-(dimethylamino)ethyl]piperazin-1-yl}phenyl)amino]-8-methylpyrido[4,3-d]pyrimidin-5(6H)-one], the inhibitory constant (Ki) stood at 0.2 nM.

Regarding `Cc1cn(-c2c(Cl)cccc2Cl)c(=O)c2cnc(Nc3ccc4c(c3)CNCC4(C)C)nc12` [Example 77, 6-(2,6-dichlorophenyl)-2-[(4,4-dimethyl-1,2,3,4-tetrahydroisoquinolin-7-yl)amino]-8-methylpyrido[4,3-d]pyrimidin-5(6H)-one], the Ki was found to be 0.3 nM.

Turning to `C=Cc1cn(-c2c(F)cccc2Cl)c(=O)c2cnc(Nc3ccc(C4CCN(C)CC4)cc3)nc12` [Example 61, 6-(2-chloro-6-fluorophenyl)-8-ethenyl-2-{[4-(1-methylpiperidin-4-yl)phenyl]amino}pyrido[4,3-d]pyrimidin-5(6H)-one], the Ki stood at 0.3 nM.

For `Cc1cn(-c2c(O)cccc2Cl)c(=O)c2cnc(Nc3ccc4c(c3)CNC4(C)C)nc12` [Example 136, 6-(2-chloro-6-hydroxyphenyl)-2-[(1,1-dimethyl-2,3-dihydro-1H-isoindol-5-yl)amino]-8-methylpyrido[4,3-d]pyrimidin-5(6H)-one], the Ki is 0.2 nM.

Consider `CC1(C)CNCc2cc(Nc3ncc4c(=O)n(-c5c(Cl)cccc5Cl)cc(C(F)F)c4n3)ccc21` [Example 85, 6-(2,6-dichlorophenyl)-8-(difluoromethyl)-2-[(4,4-dimethyl-1,2,3,4-tetrahydroisoquinolin-7-yl)amino]pyrido[4,3-d]pyrimidin-5(6H)-one], for which the Ki turned out to be 0.265 nM.

Consider `CN(C)C1CCN(c2ccc(Nc3ncc4c(=O)n(-c5c(Cl)cccc5Cl)cc(CO)c4n3)cc2)CC1` [Example 55, 6-(2,6-dichlorophenyl)-2-({4-[4-(dimethylamino)piperidin-1-yl]phenyl}amino)-8-(hydroxymethyl)pyrido[4,3-d]pyrimidin-5(6H)-one], for which the Ki was determined as 0.6 nM.

On to `Cc1cn(-c2c(Cl)cccc2Cl)c(=O)c2cnc(Nc3ccc(C4CCN(C)CC4)cc3)nc12` [Example 78, 6-(2,6-dichlorophenyl)-8-methyl-2-{[4-(1-methylpiperidin-4-yl)phenyl]amino}pyrido[4,3-d]pyrimidin-5(6H)-one], for which the Ki is 0.2 nM.

In the case of `Cc1cn(-c2c(F)cccc2Cl)c(=O)c2cnc(Nc3ccc4c(c3)CN(C)CC43CC3)nc12` [Example 67, 6-(2-chloro-6-fluorophenyl)-8-methyl-2-[(2′-methyl-2′,3′-dihydro-1′H-spiro[cyclopropane-1,4′-isoquinolin]-7′-yl)amino]pyrido[4,3-d]pyrimidin-5(6H)-one], the inhibitory constant (Ki) turned out to be 0.8 nM.

On to `O=c1c2cnc(Nc3ccc4c(c3)CNCC4)nc2c(C(F)F)cn1-c1c(Cl)cccc1Cl` [Example 87, 6-(2,6-dichlorophenyl)-8-(difluoromethyl)-2-(1,2,3,4-tetrahydroisoquinolin-7-ylamino)pyrido[4,3-d]pyrimidin-5(6H)-one], for which the Ki turned out to be 0.254 nM.

Turning to `Cc1cn(-c2c(Cl)cccc2Cl)c(=O)c2cnc(Nc3ccc(NC4CCN(C)CC4)cc3)nc12` [Example 116, 6-(2,6-dichlorophenyl)-8-methyl-2-({4-[(1-methylpiperidin-4-yl)amino]phenyl}amino)pyrido[4,3-d]pyrimidin-5 (6H)-one], the Ki amounted to 0.1 nM.

Take `COC(=O)c1ccc(Cl)c(-n2cc(C)c3nc(Nc4ccc(N5CCC(N(C)C)CC5)cc4)ncc3c2=O)c1` [Example 108, methyl 4-chloro-3-[2-({4-[4-(dimethylamino)piperidin-1-yl]phenyl}amino)-8-methyl-5-oxopyrido[4,3-d]pyrimidin-6(5H)-yl]benzoate]: the inhibitory constant (Ki) turned out to be 242 nM.
